Where a SMILES comes first, the peptide text is derived from it. Bridges are numbered along the chain shown (N, C = ends).
What was measured:
streptavidin = target: T1, streptavidin (Streptomyces avidinii, UniProt P22629); assay: Surface plasmon resonance (SPR), binding to immobilized streptavidin; details: SPR sensorgrams, peptide 20–320 nM
T1 construct: purchased Biosynthesis Biotechnology (Beijing, China)
Protocol: (§1) 1.7 Surface plasmon resonance (SPR) assays
(§2) SPR assays were performed using a Biacore T200. Target proteins (Sumo-Bcl-2 and […]
(§3) to reach a target response of 1000 RU. Flow cell Fc3 that was not immobilized with proteins was used as the reference channel. […]

Bcl-2 = target: T2, Bcl-2 (Homo sapiens, UniProt P10415); assay: Surface plasmon resonance (SPR), binding to immobilized Sumo-Bcl-2; details: for Binding affinity to Bcl-2 (SPR), in words: SPR sensorgrams, peptide 160–2560 nM
T2 construct: made in house; host or cells: E. coli
T2 sequence (P10415 whole entry, species assumed): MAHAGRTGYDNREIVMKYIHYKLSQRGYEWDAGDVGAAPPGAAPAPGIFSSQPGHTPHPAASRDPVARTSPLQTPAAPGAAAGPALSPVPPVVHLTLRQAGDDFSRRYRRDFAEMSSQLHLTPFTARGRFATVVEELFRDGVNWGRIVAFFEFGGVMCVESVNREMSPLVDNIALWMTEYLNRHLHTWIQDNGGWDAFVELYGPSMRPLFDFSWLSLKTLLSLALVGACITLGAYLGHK
Protocol: as §1, §2, §3

[1] = Thermal denaturation monitored using circular dichroism; type: physicochemical; details: CD, 50 μM peptide in water, 25–95 °C, ellipticity at 220 nm
Protocol: Circular dichroism (CD) spectra were measured using a 1.0 mm path length cuvette at room temperature (25 ℃). All measured peptides were dissolved in water to reach a concentration of 50
μM. The baseline signal (pure aqueous solution) were subtracted from each spectrum. CD spectra were recorded in a wavelength range of 190 ‒ 260 nm with a bandwidth of 2.0 nm, a date pitch of 1.0 nm, a response time of 8. 0 s, and a scanning speed of 50 nm/min. The thermal denaturation CD spectra were recorded in a temperature range of 25 ‒ 95 ℃ with a heating rate of 10 ℃/min. For temperature melts, the change of ellipticity at 220 nm was monitored as temperature increased f rom 25 to 95 °C in an increment of 10 °C. Other experimental conditions were consistent with those of […]

chymotrypsin = assay: Proteolytic stability of peptides toward chymotrypsin; type: in vitro ADME; details: 100 μM peptide, phosphate buffer 100 mM pH 7.4, 37 °C, HPLC, 0–180 min
Protocol: 1.9 Proteolytic stability of peptides
100 μM 15-Ala, 16-Ala, oxidized 15, and oxidized 16 were respectively treated with phosphate buffer (pH = 7.4, 100 mM) containing chymotrypsin at 37 °C . The chymotrypsin concentration used for the digestion of 15 - Ala and oxidized 15 is 0.3 μ g/mL . The chymotrypsin concentration used for the digestion of 16 - Ala and oxidized 16 is 5.0 μ g/mL . At pred e fined time s , 50 μ L aliqu ots were taken with a pipette , quenched with 70 μ L 10% HPO 3 , and analyzed by HPLC. […]

MDM2 = MDM2 (Homo sapiens, UniProt Q00987); assay: Fluorescence polarization competition assay, binding to MDM2
Chain of MDM2 (Q00987 whole entry, species assumed): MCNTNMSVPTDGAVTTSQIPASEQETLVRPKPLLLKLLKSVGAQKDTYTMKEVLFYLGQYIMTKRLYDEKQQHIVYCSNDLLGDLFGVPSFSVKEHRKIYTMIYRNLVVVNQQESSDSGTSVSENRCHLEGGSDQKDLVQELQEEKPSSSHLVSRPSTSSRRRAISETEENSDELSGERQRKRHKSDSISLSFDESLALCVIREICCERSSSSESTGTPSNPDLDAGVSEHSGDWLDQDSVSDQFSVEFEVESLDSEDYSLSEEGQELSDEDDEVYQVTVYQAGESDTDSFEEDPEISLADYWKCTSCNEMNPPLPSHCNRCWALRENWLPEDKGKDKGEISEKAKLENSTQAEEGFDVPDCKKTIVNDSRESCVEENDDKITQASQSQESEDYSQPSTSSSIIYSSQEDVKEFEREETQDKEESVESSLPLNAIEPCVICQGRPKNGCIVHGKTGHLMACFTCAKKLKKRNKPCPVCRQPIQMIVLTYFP
Protocol: 1.6 Fluorescence polarization (FP) assays
Infinite® 200 PRO Microplate Reader. […]
data with the single-site binding model. […]
described above, and fluorescence anisotropies were recorded. The Ki value of the binding between […]
been described in our previous reports.1,6
as §1, §2

T1 sequence (P22629 25-183): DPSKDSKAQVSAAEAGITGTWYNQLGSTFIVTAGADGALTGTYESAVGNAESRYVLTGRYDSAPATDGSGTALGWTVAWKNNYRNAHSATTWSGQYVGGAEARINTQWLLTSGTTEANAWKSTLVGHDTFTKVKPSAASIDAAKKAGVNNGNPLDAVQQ

Compound | Binding affinity to streptavidin (SPR), in words (streptavidin) | Binding affinity to Bcl-2 (SPR), in words (Bcl-2) | Stability to heat treatment (aggregation) [1] | Binding affinity to MDM2 (FP competition), in words (MDM2) | other results
CC[C@H](C)[C@@H]1NC(=O)[C@@H]2CSSC[C@H](NC(=O)[C@H](CC(C)C)NC(=O)[C@H](CCC(=O)O)NC(=O)[C@@H]3CCCN3C(=O)[C@H](Cc3ccccc3)NC1=O)C(=O)N1CCC[C@H]1C(=O)N[C@@H](Cc1c[nH]c3ccccc13)C(=O)N[C@@H]([C@@H](C)CC)C(=O)N[C@@H](C(C)C)C(=O)N[C@H]1CSSC[C@H](NC(=O)CNC(C)=O)C(=O)N[C@@H](CCC(=O)O)C(=O)N[C@@H](CCCCN)C(=O)N[C@@H](C)C(=O)N[C@@H]([C@@H](C)O)C(=O)N[C@@H](CCC(=O)O)C(=O)N[C@@H](CO)C(=O)N[C@@H](CCC(=O)O)C(=O)N[C@@H](CO)C(=O)N3CCC[C@H]3C(=O)N[C@@H](CSSC[C@@H](C(N)=O)NC1=O)C(=O)N1CCC[C@H]1C(=O)N2 [Oxidized 15] (Ac-GCEKATESESPCPCIFPELCPWIVCC-NH2; disulfide 2-25, 12-26, 14-20) | no binding affinity | no binding affinity | no aggregation was observed | – | Stability toward proteolysis by chymotrypsin compared to linear analog (chymotrypsin; chymotrypsin 0.3 μg/mL, versus 15-Ala): significantly more stable
Ac-GAMILLDTDIWAPASHPYAAPENIAA-NH2 [16-Ala, linear counterpart (Cys-to-Ala mutant) of 16] | – | negligible affinity | – | – | –
CC[C@H](C)[C@@H]1NC(=O)[C@H](Cc2c[nH]c3ccccc23)NC(=O)[C@@H]2CCCN2C(=O)[C@@H]2CSSC[C@H](NC(=O)[C@@H]3CCCN3C(=O)[C@@H]3CSSC[C@@H](C(N)=O)NC(=O)[C@H](CSSC[C@H](NC(C)=O)C(=O)NCC(=O)N[C@@H](CO)C(=O)NCC(=O)N[C@@H](CO)C(=O)NCC(=O)N[C@@H](CO)C(=O)NCC(=O)N[C@@H](CO)C(=O)NCC(=O)N3)NC(=O)[C@H](CCCNC(=N)N)NC1=O)C(=O)N[C@@H]([C@@H](C)CC)C(=O)N[C@@H](Cc1c[nH]c3ccccc13)C(=O)N1CCC[C@H]1C(=O)N[C@@H](CCC(=O)O)C(=O)N[C@@H](CC(C)C)C(=O)N2 [compound 8] (Ac-CGSGSGSGSGCPCIWPELCPWIRCC-NH2; disulfide 1-24, 11-25, 13-19) | – | – | – | – | Ki (MDM2; PBS pH 7.4, room temperature, peptides HPLC-purified >95%): 164 nM
CC[C@H](C)[C@@H]1NC(=O)[C@H](CC(N)=O)NC(=O)[C@H](CCC(=O)O)NC(=O)[C@@H]2CCCN2C(=O)[C@@H]2CSSC[C@H](NC(=O)[C@@H]3CCCN3C(=O)[C@@H]3CSSC[C@@H](C(N)=O)NC(=O)[C@H](CSSC[C@H](NC(=O)CNC(C)=O)C(=O)N[C@@H](CCSC)C(=O)N[C@@H]([C@@H](C)CC)C(=O)N[C@@H](CC(C)C)C(=O)N[C@@H](CC(C)C)C(=O)N[C@@H](CC(=O)O)C(=O)N[C@@H]([C@@H](C)O)C(=O)N[C@@H](CC(=O)O)C(=O)N[C@@H]([C@@H](C)CC)C(=O)N[C@@H](Cc4c[nH]c5ccccc45)C(=O)N3)NC1=O)C(=O)N[C@@H](CO)C(=O)N[C@@H](Cc1c[nH]cn1)C(=O)N1CCC[C@H]1C(=O)N[C@@H](Cc1ccc(O)cc1)C(=O)N[C@@H](C)C(=O)N2 [Oxidized 16] | negligible binding affinity | – | no aggregation was observed | negligible binding affinity | kd, binding kinetics with Bcl-2 (SPR) (Bcl-2; Biacore T200, 1:1 binding model, peptide 0.16–2.56 μM): 0.0498 s⁻¹; kon (Bcl-2; read-out: ka, binding kinetics with Bcl-2 (SPR)): 126000 M⁻¹ s⁻¹; Stability toward proteolysis by chymotrypsin compared to linear analog (chymotrypsin; chymotrypsin 5.0 μg/mL, versus 16-Ala): significantly more stable
Ac-CGSGSGSGCGCPCIWPELCPWIRSC-NH2 (also: bicyclic or more (positions not given here)) [compound 11, original peptide template of the 11-X14 library] | no binding affinity | – | – | – | –
CSCC[C@@H]1NC(=O)[C@@H]2CCCN2C(=O)[C@@H]2CSSC[C@H](NC(=O)[C@@H]3CCCN3C(=O)[C@@H](NC(=O)[C@H](Cc3ccccc3)NC(=O)[C@@H]3CSSC[C@H](NC(=O)CNC(C)=O)C(=O)NCC(=O)N[C@@H](CO)C(=O)N[C@@H](CC(=O)O)C(=O)N[C@@H](CCC(=O)O)C(=O)N[C@@H](C)C(=O)N3)CSSC[C@@H](C(N)=O)NC(=O)[C@H](Cc3c[nH]cn3)NC(=O)[C@H](CCC(N)=O)NC(=O)[C@H](C)NC1=O)C(=O)N[C@@H](CO)C(=O)N[C@@H](Cc1c[nH]cn1)C(=O)N1CCC[C@H]1C(=O)N[C@@H](CCC(=O)O)C(=O)N[C@@H](CC(N)=O)C(=O)N2 [compound 17] (Ac-GCGSDEACFCPCSHPENCPMAQHC-NH2; disulfide 2-8, 10-24, 12-18) | – | negligible binding affinity | – | negligible binding affinity | –
